Results from patent US11827624B2, “Covalent immune recruiter compounds for immune cell recognition and associated uses” (McMaster University, priority 2020, dated 2023).

What was measured:
[1] = Aqueous CIR stability test (LC-MS hydrolytic stability in PBS); type: physicochemical; conditions: PBS with 1% DMSO; ≈10 μM in 1% DMSO/PBS, room temperature; read-out: t1/2 (hydrolytic stability, intact CIR) (converted)
Description: Stability studies were conducted on a Sciex 4000 QTRAP, ESI-LCMS Triple Quadrupole Mass Spectrometer connected to an Agilent 1200 HPLC. All molecules were diluted 100× in PBS from a stable frozen DMSO stock solution reaching a final concentration of ≈10 μM in 1% DMSO/PBS and incubated for different amounts of time at room temperature, prior to LC-MS injection using a gradient of 95:5 to 5:95 (0.1% Formic Acid (aq)) water: ACN over 15 minutes. The integrations of the Absorbance values at 355-365 nm, were determined corresponding to the DNP moiety. The absorbance values corresponding to intact CIR were divided by the sum of intact and hydrolyzed CIR (the imidazole-DNP fragment) to determine fraction CIR intact changing with time. The fraction of intact CIR versus time was plotted on GraphPad Prism 8 using a “Dissociation—One Phase Decay” to extract the half life.
LC-MS analysis of the hydrolytic stability of CIRs 1, 3, and 4 in PBS was performed. The curve fit was done using a monoexponential decay which represents intact CIR plotted as a function of peak integration (corresponding to DNP absorbance) overtime.

anti-DNP IgG = assay: Modified octet solution labelling kinetics assay with PSMA coated probes; type: binding, rabbit
Description: To determine the kinetics of CIR 3 covalent labelling of anti-DNP IgG, a modified octet protocol was developed to accommodate the weaker binding affinity of glutamate urea on CIR 3 for biotinylated PSMA, which was loaded onto streptavidin coated octet probes in these experiments. First, streptavidin probes from ForteBio were placed in wells each containing 250 μl solutions composed of 100 nM biotinylated PSMA in kinetics Buffer (1×) spiked with 1% (v/v) DMSO for 20 minutes in an Octet Red96 instrument. The RPM was 1000, the temperature was held at 30° C., and the acquisition rate was 5 Hz. Following washing and baseline steps described above, the probes were then placed in a solution containing 200 nM CIR 3+100 nM anti-DNP IgG (Ab) that already had been allowed to react for varying amounts of time away from the octet instrument to form CIR 3-Ab, followed by quenching with 1 mM DNP-Glycine competitor to disrupt non covalent complex [CIR 3:Ab]. The association of CIR 3-Ab (already formed in solution) with PSMA coated probe was monitored, and the initial rates and final signal plateau measured as a function of the concentration of CIR 3-Ab formed with incubation time away from the octet instrument in solution. […]

PSMA coated beads = assay: Flow cytometry ADCP assay, PSMA coated beads and U937 monocytes; type: cell-based, human; conditions: 400 nM CIR 3, 200 nM anti-DNP IgG, 10% FBS+RPMI
Description: 24 hours prior to inducing phagocytosis, 6 million U937 monocytes were seeded at 500,000 cells/mL and activated with IFN-γ ([…]). These cells were then counted and washed twice with serum free assay media (neat RPMI). Cells were then suspended to a concentration of 1 million cells/mL and stained with 1.9 μM Vybrant™ DiD Cell-Labelling Solution for 30 minutes (37° C., 5% CO2). Cells were then washed 3× with warm assay media (AM, 10% Ultra Low IgG FBS in RPMI) and resuspended to a concentration of 1.5 million cells/mL for use.
5.6 million YG strep beads were washed 3× with PBS and resuspended in 150 μL of a saturating concentration of biotinylated-PSMA solution. This was allowed to incubate at 4° C. for 1 hour and then washed 3× with serum free AM. The beads were resuspended with AM to a concentration of 15 million beads/mL for use.
All stocks were made in AM. The initial anti-DNP antibody stock solution was made (320 μL of 200 nM). 75 μL of this was removed and 0.4 μL of PMPA solution was added (250 mM in DMSO). […] Beads were detected in the PE-Cy7 channel, monocytes were detected in the APC Cy7 channel, PSMA loading was confirmed with the Alexa 647 channel. […] ADCP was determined by plotting monocyte stain against bead stain, and was quantified as % Target Phagocytosis=(Double Positive Events)/PSMA Bead Target Events+Double Positive Events×100. […]

For `O=C(O)CC[C@H](NC(=O)N[C@@H](CCCCNC(=O)NCCOCCOCCOCCOCCOCCOCCOCCOC(=O)n1cnc(CCNC(=O)CNc2ccc([N+](=O)[O-])cc2[N+](=O)[O-])c1)C(=O)O)C(=O)O` [CIR 3], the half-life [1] was ~12 h, the “pseudo intramolecular complex labelling rate constant k=kobs/0.5” value (anti-DNP IgG; 200 nM CIR 3 + 100 nM anti-DNP IgG) was 0.51 h⁻¹ and the “rate constant k2” value (anti-DNP IgG; solution labelling, PSMA coated probes) was 0.00014 s⁻¹. The “ADCP of PSMA coated beads” value (PSMA coated beads) was “could selectively affect ADCP of PSMA coated target beads via covalent recruitment of anti-DNP, in a time dependent manner”.
